Measurements published in US20170008888A1 (KYORIN PHARMACEUTICAL CO., LTD., priority 2014, published 2017).

Experiments:
[1] = system: TLR2 signaling in primary human umbilical vein endothelial cells; assay: Cytokine response to TLR2 agonism (Pam3CysK4) in primary HUVEC (ELISA); assay type: cell-based; settings: for IL-8 response to TLR2 (Pam3CysK4) stimulation, in words: summary of Table 22
From the text: It has been reported in the literature that that ERK5 mediates TLR2-dependent inflammatory signaling in several cell types including human umbilical vein endothelial cells (HUVEC). See Wilhelmsen et al., J Biol Chem. 2012; 287:26478-94. Wilhelmsen et al. further reported that MEK1 negatively regulates TLR2 signaling in HUVECs, with pharmacological inhibition of MEK1 augmenting (IL-6, G-CSF, GM-CSF) or not changing (IL-8) pro-inflammatory cytokine release in response to TLR2 stimulation.
(§1) In this example, the following commercially available inhibitors were tested:
(§2) The results were compared with test compound 61.
(§3) Pooled primary human umbilical vein endothelial cells (HUVEC) were obtained from Lonza (Allendale, N.J.) and maintained in either complete EGM-2 defined media (Lonza) or Medium 200 supplemented with Low Serum Growth Supplement (Life Technologies, Grand Island, N.Y.). Cells at low passage (<5) were seeded at 4e5 cells/ml and allowed to adhere overnight at 37° C. in a humidified atmosphere at 5% CO2. Cells were pre-treated with test compounds for 1 h prior to TLR2 or TLR4 stimulation. To test for the effects of TLR2 agonism, the TLR2 agonist peptide Pam3CysK4 (Santa Cruz Biotechnology, Dallas, Tex.) was used at 10 μg/ml. PHC-SKKK (Enzo Life Sciences, Farmingdale, N.Y.) served as the negative control peptide. To test for the effects of TLR4 agonism, LPS from E. coli 0111:B4 (EMD Millipore, Billerica, Mass.) was used at 100 ng/ml. Cells were incubated for 22 hr, after which the supernatant was collected and analyzed for cytokine concentrations by ELISA (Life Technologies). Absorbance at 450 nm was read using the Wallac 1420 Victor^2 multilabel microplate reader (Perkin Elmer, Waltham, Mass.).

[2] = system: TLR4 signaling in primary human umbilical vein endothelial cells; assay: Cytokine response to TLR4 agonism (LPS) in primary HUVEC (ELISA); assay type: cell-based; settings: for IL-8: 22 hr; for IL-6 response, in words: summary of Table 24
Description: as §1, §2, §3

[3] = system: collagen-induced arthritis mouse model; assay: Collagen-induced arthritis (CIA) mouse model: in-life disease score, paw thickness; assay type: in vivo, mouse (DBA/1J); settings: for change in group average disease score - mean, Day versus Day 21 (start of treatment): Tofacitinib 15 mg/kg PO BID from D21
[4] = system: collagen-induced arthritis mouse model; assay: Collagen-induced arthritis (CIA) mouse model: histopathology of tibiofemoral and tarsal/phalangeal joints; assay type: in vivo, mouse (DBA/1J)
[5] = system: primary asthmatic human bronchial epithelial cells; assay: IL-17A- or IL-17F-mediated cytokine response by primary asthmatic human bronchial epithelial cells; assay type: cell-based; settings: Epithelial cell, 0.25 μM, positive control, data not shown, read-out: inhibition of measured cytokines
Description: The virally immortalized, normal human bronchial epithelial cell line BEAS-2B was purchased from ATCC (Manassas, Va.). Primary bronchial epithelial cells isolated from a patient diagnosed with asthma were obtained from Lonza (Allendale, N.J.). Both cells were maintained in complete Bronchial Epithelial Cell Growth Medium (BEGM) (Lonza). Cells were seeded at 1e5 cells/ml and incubated at 37° C. in a humidified atmosphere at 5% CO2 overnight to adhere. Cells were pre-treated with test compounds (10 μM down by ⅕ in a 3- or 4-point serial dilution series) for 1 h at 37° C. in a humidified atmosphere at 5% CO2. DMSO at a final concentration of 0.1% served as the non-inhibited control. Budesonide (Selleck Chemicals, Houston, Tex.), a clinically approved glucocorticoid steroid for the treatment of asthma, was tested as a positive control at 0.25 μM. Cells were stimulated with 50 ng/ml of either human recombinant IL-17A or IL-17F (eBioscience, San Diego, Calif.), for 48 h. Supernatant was then collected and analyzed for cytokine concentrations using the Bio-Plex Pro Human Cytokine 17-Plex Panel (Bio-Rad Laboratories, Hercules, Calif.) according to the manufacturer's instructions. Magnetic beads were measured on the Bio-Plex MAGPIX multiplex reader instrument using the accompanying xPONENT 4.2 acquisition software (Bio-Rad Laboratories). Data were analyzed via the Bio-Plex Manager software v6.1 (Bio-Rad Laboratories). For the primary asthmatic bronchial epithelial cells, five (+IL-17F) to thirteen (+IL-17A) cytokines were in range of detection under the conditions used. […] Select cytokines were analyzed for comparison using the BEAS-2B cell line.
BLQ: cytokine levels were below limits of quantitation.

[6] = 5 μM inhibitor, +10 μg/ml PHC-SKKK (negative control peptide), 22 hr
[7] = 5 μM inhibitor, +10 μg/ml Pam3CysK4, 22 hr
[8] = 10 μM inhibitor, +100 ng/ml LPS
[9] = 10 μM inhibitor, No Stimulation
[10] = Group 2 (n=10): Tofacitinib 15 mg/kg PO BID D21-D42
[11] = Group 2: Tofacitinib 15 mg/kg PO BID D21-D42

O=C(NC[C@H](O)CO)c1ccncc1Nc1ccc(I)cc1F [AS703026]
IL-8 [1, 6]: 0 ± 23 pg/mL | IL-8 [1, 7]: 732 ± 36 pg/mL | IL-8 response to TLR2 (Pam3CysK4) stimulation, in words [1]: moderate IL-8 augmentation | IL-8 ([2]; 5 μM inhibitor, +100 ng/ml LPS): 1970 ± 126 pg/mL | G-CSF [2, 8]: 90 ± 13 pg/mL | IL-6 [2, 8]: 1368 ± 169 pg/mL | G-CSF [2, 9]: 30 ± 1 pg/mL | IL-6 [2, 9]: 529 ± 20 pg/mL | IL-6 response, in words [2]: Cytokine augmentation was observed

C[S+]([O-])c1ccc(-c2nc(-c3ccncc3)c(-c3ccc(F)cc3)[nH]2)cc1 (stereo not drawn) [SB203580]
IL-8 ([1]; 10 μM inhibitor, +10 μg/ml PHC-SKKK (negative control peptide), 22 hr): 54 ± 12 pg/mL | IL-8 ([1]; 10 μM inhibitor, +10 μg/ml Pam3CysK4, 22 hr): 450 ± 23 pg/mL | IL-8 response to TLR2 (Pam3CysK4) stimulation, in words [1]: reduced the IL-8 response | G-CSF [2, 8]: 318 ± 33 pg/mL | IL-6 [2, 8]: 112 ± 10 pg/mL | IL-8 [2, 8]: 1526 ± 54 pg/mL | G-CSF [2, 9]: 7 ± 9 pg/mL | IL-6 [2, 9]: 18 ± 5 pg/mL | IL-6 response, in words [2]: reduced

C[C@@H]1CCN(C(=O)CC#N)C[C@@H]1N(C)c1ncnc2[nH]ccc12 [Tofacitinib, reference compound]
change in group average disease score - mean, Day versus Day 21 (start of treatment) ([3]; Day 21): 0.0 | change in group average disease score - mean, Day versus Day 21 (start of treatment) ([3]; Day 24): 0.3 | change in group average disease score - mean, Day versus Day 21 (start of treatment) ([3]; Day 26): 0.9 | change in group average disease score - mean, Day versus Day 21 (start of treatment) ([3]; Day 28): 1.8 | change in group average disease score - mean, Day versus Day 21 (start of treatment) ([3]; Day 31): 2.3 | change in group average disease score - mean, Day versus Day 21 (start of treatment) ([3]; Day 33): 2.6 | change in group average disease score - mean, Day versus Day 21 (start of treatment) ([3]; Day 35): 2.7 | change in group average disease score - mean, Day versus Day 21 (start of treatment) ([3]; Day 37): 2.2 | change in group average disease score - mean, Day versus Day 21 (start of treatment) ([3]; Day 39): 2.5 | percent reduction in overall disease and total paw scores ([3]; treatment Day 21-42, Tofacitinib 15 mg/kg BID PO, doses in Table 28): about 55% | histopathology of hind-limb joints (knee, paw/tarsal), in words ([4]; Day 42, H&E): less effective at mitigating cartilage and periosteal erosion at the knee and ulceration and synovial hyperplasia than 46 | Animals with normal tarsal joints (% of total n in group) [4, 10]: 40% | Number of animals with normal tarsal joints [4, 10]: 4 | Tibiofemoral joint score: cartilage erosion/ulceration [4, 11]: 16.3 | Tibiofemoral joint score: inflammation [4, 11]: 16.3 | Tibiofemoral joint score: periosteal proliferation/erosion [4, 11]: 7.8 | Tibiofemoral joint score: synovial hyperplasia [4, 11]: 5.0

CCOc1cc(N2CCC(O)CC2)ccc1Nc1ncc2c(n1)N(C)c1ccccc1C(=O)N2C [XMD8-92]
IL-8 [1, 6]: 0 ± 25 pg/mL | IL-8 [1, 7]: 199 ± 11 pg/mL | IL-8 response to TLR2 (Pam3CysK4) stimulation, in words [1]: reduced the IL-8 response | G-CSF ([2]; 5 μM inhibitor, +100 ng/ml LPS): 111 ± 6 pg/mL | IL-6 ([2]; 5 μM inhibitor, +100 ng/ml LPS): 170 ± 21 pg/mL | IL-8 ([2]; 5 μM inhibitor, +100 ng/ml LPS): 1249 ± 42 pg/mL | G-CSF ([2]; 5 μM inhibitor, No Stimulation): 0 ± 1 pg/mL | IL-6 ([2]; 5 μM inhibitor, No Stimulation): 20 ± 1 pg/mL | IL-6 response, in words [2]: reduced

CCCC1O[C@@H]2C[C@H]3[C@@H]4CCC5=CC(=O)C=C[C@]5(C)[C@H]4[C@@H](O)C[C@]3(C)[C@]2(C(=O)CO)O1 (stereo partly drawn) [Budesonide, reference compound]
inhibition at […] [5]: < 50%
